In PubChem BioAssay (NCI):
“And” between values parts separate entries of the source, which are not always exact repeats. Equal values may be shown once.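 These data come from cells grown in 96-well plates and exposed to compound for 48 hours at five concentrations. GI50: concentration for 50% inhibition of growth. TGI: concentration producing complete growth inhibition.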

Columns and labels:
Test in all cases: NCI tumour cell line growth inhibition, 48 h
M19-MEL melanoma = system: M19-MEL melanoma
KM20L2 colon = system: KM20L2 colon
DLD-1 colon = system: DLD-1 colon
HOP-18 NSCLC = system: HOP-18 NSCLC
XF 498 CNS = system: XF 498 CNS
LXFL 529 NSCLC = system: LXFL 529 NSCLC
DMS 273 small cell lung = system: DMS 273 small cell lung
MDA-N = system: MDA-N
RXF-631 renal = system: RXF-631 renal

SMILES | TGI (M19-MEL melanoma) [µM] | TGI (KM20L2 colon) [µM] | TGI (DLD-1 colon) [µM] | TGI (HOP-18 NSCLC) | TGI (XF 498 CNS) | TGI (LXFL 529 NSCLC) [µM] | TGI (DMS 273 small cell lung) [µM] | TGI (MDA-N) [µM] | TGI (RXF-631 renal) [µM] | GI50 (M19-MEL melanoma) [µM] | GI50 (DLD-1 colon) [µM] | GI50 (HOP-18 NSCLC) [µM] | GI50 (XF 498 CNS) [µM] | GI50 (LXFL 529 NSCLC) [µM] | GI50 (DMS 273 small cell lung) [µM]
COC(=O)[C@@]1(O)CC(C)C=C1C=O (stereo partly drawn) | > 100 | > 100 | > 100 | > 100 µM | > 100 µM | > 100 | 34.6 |  |  |  |  |  |  |  | 
O=C(O)C1C(=O)Oc2c(cccc2[N+](=O)[O-])C1O (stereo not drawn) |  |  |  |  |  |  |  | > 100 |  |  |  |  |  |  | 
CCCCCCCCC(O)C#CC(N)=O (stereo not drawn) | 24.4 | 35.1 | 21.8 | 26 µM | 30.8 µM | 23.3 | 20.3 |  | 29.8 |  |  |  |  |  | 
COC1=C2C[C@H](O)C(C)C[C@@]2(OC)OC1=O (stereo partly drawn) | > 100 |  | > 100 |  | > 100 µM | > 100 | > 100 |  | > 100 |  |  |  |  |  | 
CCO/C=C1\N=C(C(Cl)c2ccccc2)OC1=O (stereo not drawn) | > 100 | > 100 | > 100 |  | > 100 µM | > 100 | > 100 |  |  |  |  |  |  |  | 
CC(=O)OCc1ccc(O)c(C=O)c1 |  |  |  |  |  |  |  | > 100 |  |  |  |  |  |  | 
Cc1ccc(-c2cc(=O)c3cc(C)c(C)c(C(=O)O)c3o2)cc1 | > 100 | > 100 | > 100 |  | > 100 µM | > 100 | > 100 |  | > 100 |  |  |  |  |  | 
COc1ccc(OC)c(NCC#N)c1 | > 100 | > 100 |  | > 100 µM | > 100 µM |  | > 100 |  | > 100 |  |  |  |  |  | 
COc1cc(C=O)c(-c2cc3c(cc2C2(C)OCCS2)OCO3)c(OC)c1OC (stereo not drawn) |  | 9.17 | 50.7 |  | 37.1 µM | 54 | 36.8 |  |  |  |  |  |  |  | 
Cc1ccc(C(=O)N2c3ccccc3N(C)n3cccc3C2CC(=O)O)cc1 (stereo not drawn) | > 100 | > 100 | > 100 |  | > 100 µM | > 100 | > 100 |  |  |  |  |  |  |  | 
CCOC(=O)[C@H]1CSC[C@@H](C(=O)OC)N1 | > 100 |  | > 100 |  |  | > 100 | > 100 |  |  |  |  |  |  |  | 
O=C(O)C(C(=O)C(=O)C(C(=O)O)c1ccc(Cl)cc1)c1ccc(Cl)cc1 (stereo not drawn) | 12.5 | 11.3 | 14.1 | 18.1 µM | 5.95 µM | 10.7 | 12.9 |  |  |  |  |  |  |  | 
CCCCCCCC(=O)OCC1OC(n2cc(F)c(=O)[nH]c2=O)C(NC(=O)OCc2ccccc2)C(O)C1O (stereo not drawn) | > 100 | > 100 |  |  |  | > 100 | > 100 |  |  |  |  |  |  |  | 
N#C/C(=C\Nc1ccccn1)C(=O)c1ccco1 |  |  |  |  |  |  |  | > 100 |  |  |  |  |  |  | 
CCn1c2ccc(C(=O)CCCN(C)C)cc2c2cc(C(=O)CCCN(C)C)ccc21 |  |  |  |  |  |  |  | 6.8 |  |  |  |  |  |  | 
O=c1cc(-c2ccccc2)[nH]c2c(Cl)cccc12 | > 100 | 36 | > 100 |  | 96.4 µM | > 100 | > 100 |  | > 100 |  |  |  |  |  | 
Cc1ccc(C(=O)N2CCN(C(=O)c3ccc(C)cc3)c3ccccc32)cc1 | > 100 | > 32.6 | > 100 | > 100 µM | 70 µM | > 100 | > 35.8 | > 100 |  |  |  |  |  |  | 
CC(=O)OC(C)(C)/C=C/C(=O)[C@](C)(O)[C@H]1[C@H](O)C[C@@]2(C)[C@@H]3CC=C4[C@@H](C[C@H](O)C(=O)C4(C)C)[C@]3(CO)C(=O)C[C@]12C | 29.9 |  | 15 | 0.646 µM and 1.32 µM | 0.665 µM and 0.209 µM | 6.62 | 0.771 |  |  | 0.298 | 0.216 | 0.216 | 0.108 | 0.09 | 0.324
C/C(CC(=O)Nc1ccc(Cl)cc1)=N\NC(=O)C[n+]1ccccc1 |  | > 100 | > 100 |  | > 100 µM | > 100 | > 100 |  | > 100 |  |  |  |  |  | 
CC(=O)C1COC(O)C1C (stereo not drawn) |  |  |  |  |  |  |  | 43.5 |  |  |  |  |  |  | 
NC(CC(=O)Nc1ccc(Cl)cc1)=Nc1ccccc1 | > 100 | > 100 | > 100 |  | > 100 µM | > 100 | > 100 |  |  |  |  |  |  |  | 
O=[P+](O)c1cc2ccccc2c2ccccc12 | > 100 | > 100 | > 100 | > 100 µM |  | > 100 | > 100 |  |  |  |  |  |  |  | 
O=C1[C@H]2ON(c3ccccc3)C(c3ccccc3F)[C@H]2C(=O)N1c1ccc(Cc2ccc(N3C(=O)[C@@H]4ON(c5ccccc5)C(c5ccccc5F)[C@@H]4C3=O)cc2)cc1 (stereo partly drawn) | > 100 | > 100 | > 100 | > 100 µM | > 100 µM | > 100 | > 100 |  | > 100 |  |  |  |  |  | 
CC(=O)OC1CC[C@@]2(C)C(CC[C@]3(C)C2CC=C2[C@@H]4CC(C)(C)CCC4(C)CCC23C)[C@@]1(C)C(=O)O (stereo partly drawn) | 54 | 36.7 | 29.3 | 43.7 µM | 50.9 µM | 32.9 | 55.5 | 64.8 | 44.7 |  |  |  |  |  | 
